Measurements: US11299782B2, “Methods for predicting anti-cancer response” (Children's Medical Center Corporation, priority 2012, dated 2022)

System: operable TNBC
Test: Cisplatin-1 clinical trial: preoperative cisplatin monotherapy, pathologic response
Type: in vivo, human
Procedure: We performed a clinical trial, Cisplatin-1, in which 28 patients with operable TNBC were treated preoperatively with cisplatin monotherapy. […] A second trial, Cisplatin-2, accrued 51 patients with TNBC who received the same preoperative cisplatin regimen as Cisplatin-1, but in combination with the angiogenesis inhibitor bevacizumab (Ryan, P. D., et al. Neoadjuvant cisplatin and bevacizumab in triple negative breast cancer (TNBC): Safety and Efficacy. J Clin Oncol 2009; 27: 551). Response rate in Cisplatin-2 were similar to Cisplatin-1. […] In Cisplatin-2, 8 patients carried a germline BRCA1 or BRCA2 mutation, of which 4 patients achieved a pCR or near pCR to the cisplatin-bevacizumab regimen. In both trials, all patients had research sequencing to determine their germline BRCA1 and BRCA2 status. Thus in some aspects of all the embodiments of the invention, the BRCA1 and BRCA2 status can be determined either simultaneously with or before the allelic imbalance or telomeric allelic imbalance analysis. In some aspects, only patients without BRCA1 or BRCA2 mutations are subjected to the NAI (number of allelic imbalance) or NtAI (number of telomeric allelic imbalance) assays or analyses. Cisplatin was used as an example of platinum comprising cancer therapies. A total of 28 mainly sporadic TNBC patients were treated with cisplatin monotherapy in the neo-adjuvant setting (Silver et al. (2010) J. Clin. Oncol. 28, 1145-1153). Cisplatin response was measured using the semiquantitative Miller-Payne score by pathological assessment of surgical samples after therapy (Ogston et al. (2003) Breast 12, 320-327). […] Therapeutic response was measured using the semiquantitative Miller-Payne grading system, which estimates the percent reduction in invasive tumor volume and cellularity based on pathological assessment of surgical samples after therapy (Ogston, K. N., et al., A new histological grading system to assess response of breastcancers to primary chemotherapy: prognostic significance and survival. Breast 2003; 12: 320-327). […]

Compound: N.N.[Cl][Pt][Cl] [cisplatin]
- patients with greater than 90% tumor reduction (10 of 28 patients, preoperative cisplatin monotherapy): 36%
- patients progressed on therapy (of 28 patients): 4
- pathologic complete response (pCR), number of women (of 28 patients, 2 of them had BRCA1-associated cancers): 6
